# Test results reported in article PMC12920416, “Preclinical development of [^18F]TAAR1-2203 as a PET radioligand for imaging TAAR1 expression and receptor occupancy” (European Journal of Nuclear Medicine and Molecular Imaging, 2025).
# Tests used:
# [1] = Serum stability, rat serum; assay type: in vitro ADME; conditions: 60 min, 37 °C
# Description: (§1) The stability of [^18F]TAAR1-2203 was assessed in mouse, rat, NHP, and human serum. Aliquots (400 µL) of serum were preincubated at 37 °C for 5 min, followed by the addition of [^18F]TAAR1-2203 (20 µL, 300 µCi/11.1 MBq). After 60 min, 200 µL of each sample was collected, quenched with ice-cold MeCN (200 µL), centrifuged at 10,000 g for 5 min, and analyzed by radio-HPLC (XBridge C18 column, 3.5 μm, 4.6 mm × 150 mm; CH3CN/H2O 35:65 with 0.1% TEA; flow rate 1.0 mL/min). Experiments in PBS served as negative controls, and benfluorex hydrochloride was used as a positive control.
# [2] = Serum stability, human serum; assay type: in vitro ADME; conditions: 60 min, 37 °C
# Description: as §1
# [3] = Microsomal stability, rat liver microsomes; assay type: in vitro ADME; conditions: after 60 min, 37 °C, printed as rodent microsomes
# Description: (§2) Microsomal stability of [^18F]TAAR1-2203 was evaluated using mouse, rat, NHP, and human liver microsomes. Potassium phosphate buffer (340 µL, 0.5 M, pH 7.4) was combined with NADPH regenerating solution (40 µL, 10 mM). Radiotracer solution (10 µL, 150 µCi, 5.5 MBq) was added, and the mixture was preincubated at 37 °C for 5 min. Liver microsomes (20 µL) were subsequently added. Incubations were carried out at 37 °C with gentle shaking. At 30 and 60 min, 200 µL aliquots were quenched with ice-cold MeCN (200 µL), centrifuged at 10,000 g for 5 min, and analyzed using an AR-2000 radio-TLC imaging scanner (Eckert & Ziegler).
# [4] = Microsomal stability, NHP liver microsomes; assay type: in vitro ADME, non-human primate; conditions: after 60 min, 37 °C
# Description: as §2
# [5] = Plasma protein binding of tracer, rat plasma; assay type: in vitro ADME; conditions: radiotracer, 10 min incubation, ultrafiltration, read-out: Free fraction in rat plasma
# Description: (§3) Plasma protein binding of [^18F]TAAR1-2203 was determined in mouse, rat, NHP, and human plasma. Plasma samples (150 µL, n = 3) were preincubated at 37 °C for 5 min before addition of [^18F]TAAR1-2203 (10 µCi, 0.37 MBq). After 10 min of incubation, 300 µL of ice-cold PBS were added. Samples (300 µL) were then transferred onto Amicon® centrifugal filter units (10 kDa cut-off) and centrifuged at 2100 g for 15 min at 4 °C. Filtrates were washed with 300 µL PBS and centrifuged again. Radioactivity in the filtrate and protein-bound fractions was measured using a Packard Cobra 5002/5003 gamma counter.
# [6] = Plasma protein binding of tracer, NHP plasma; assay type: in vitro ADME; conditions: non-human primate, radiotracer, 10 min incubation, ultrafiltration, read-out: Free fraction in NHP plasma
# Description: as §3
# [7] = target: T1, TAAR1 (Mus musculus, UniProt Q923Y8); test: In vitro autoradiography, mouse pancreas and kidney sections; assay type: binding, CD1 mice; conditions: tracer 5–8 nM; blockade with RO5333943 or RO5425754 at 10 µM
# T1 construct: peripheral organs that express endogenous TAAR1; tissue Charles River (wild-type); F. Hoffmann-La Roche Ltd. (TAAR1 knock-out and matched controls); host or cells: mouse pancreas, kidney, liver, brain
# Description: (§4) In vitro autoradiography experiments with [^18F]TAAR1-2203 were conducted on mouse and rat pancreas, kidney and brain tissue sections, respectively. Tissue Sect. (20 μm) were thawed on ice for 10 min and preincubated in assay buffer (50 mM Tris, pH 7.4) for 10 min. Subsequently, sections were incubated with [^18F]TAAR1-2203 for 40 min at ambient temperature. For blocking studies, structurally distinct TAAR1 agonists, RO5333943 or RO5425754, were added in excess to the assay buffer at a final concentration of 10 µM. After incubation, sections were washed in assay buffer for 2 min on ice and dipped briefly in water (2 × 5 s), followed by drying and exposure to a phosphor imager plate for 60 min. Imager plates were scanned on an Amersham Typhoon analyzer system, and images were analyzed using ImageQuant TL 8.1, as previously reported.
# [8] = target: T1, TAAR1; test: In vitro autoradiography, TAAR1 knockout vs wild-type mouse tissue sections; assay type: binding
# Description: as §4
# [9] = target: T1, TAAR1; test: Ex vivo whole-body biodistribution, baseline and blockade; assay type: in vivo, CD1 mice
# Description: Female CD1 mice (16 weeks old, n = 4) received [^18F]TAAR1-2203 (15 µCi, 0.56 MBq in 100 µL saline) via tail vein injection. For blocking studies, TAAR1 agonist RO5425754 (4 mg/kg) dissolved in saline containing 10% DMSO and 5% Tween® 80 was administered shortly before tracer injection through the same i.v. catheter. Mice were sacrificed at 5, 15, 30, and 60 min post-injection (n = 4 per group), and organs were harvested, weighed, and measured for radioactivity using a Packard Cobra 5002/5003 gamma counter. Data were decay-corrected and expressed as percentage of injected dose per gram of wet tissue (%ID/g).
# [10] = target: T1, TAAR1; test: Dynamic PET imaging, TAAR1 knockout vs wild-type mice; assay type: in vivo
# Description: Dynamic PET imaging was performed for 60 min in female C57BL/6 mice, as well as in TAAR1 knock-out mice and respective controls, under 1–2% (v/v) isoflurane anaesthesia as previously reported. [^18F]TAAR1-2203 (1.5 MBq in 100 µL saline) was administered via tail vein injection. For blocking studies, TAAR1 agonist RO5425754 (4 mg/kg) was injected 5 min prior to radiotracer administration. Dynamic PET scans were acquired using a G8 PET/CT scanner (Sofie Biosciences, Culver, CA, USA) and analyzed with PMOD software (PMOD Technologies Ltd., Zurich, Switzerland). Radioactivity was decay-corrected and expressed as standardized uptake values (SUVs), normalized to body weight and injected dose.
# [11] = baseline, i.v., initial uptake post-injection
# [12] = blockade with RO5425754 4 mg/kg, 15 min post-injection, n = 4
# T1 sequence (Q923Y8 whole entry): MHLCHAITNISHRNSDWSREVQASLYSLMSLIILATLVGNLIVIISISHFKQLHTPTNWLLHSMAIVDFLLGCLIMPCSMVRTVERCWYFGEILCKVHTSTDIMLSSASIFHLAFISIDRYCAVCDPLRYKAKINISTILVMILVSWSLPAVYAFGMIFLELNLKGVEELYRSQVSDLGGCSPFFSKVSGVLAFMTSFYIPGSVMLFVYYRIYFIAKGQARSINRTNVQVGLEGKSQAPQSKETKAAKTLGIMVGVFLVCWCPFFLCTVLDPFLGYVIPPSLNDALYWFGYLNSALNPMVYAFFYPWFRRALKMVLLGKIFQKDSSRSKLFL
compound,measurement,setting,value
Cc1c([18F])cccc1[C@H]1COC(N)=N1 [[^18F]TAAR1-2203],Intact parent tracer in rat serum,[1],> 99%
same,Intact parent tracer in human serum,[2],> 99%
same,Intact tracer in rat liver microsomes,[3],> 98%
same,Intact tracer in NHP liver microsomes,[4],> 99%
same,"fraction unbound at 10 min, 2.47 MBq/mL",[5],~0.6
same,"fraction unbound at 10 min, 2.47 MBq/mL",[6],~0.6
same,"Reduction of tracer binding, mouse kidney",[7],greater than 70%
same,"Reduction of tracer binding, mouse pancreas",[7],more than 50%
same,"Tracer signal in brain tissue, TAAR1 KO vs WT mice",[8],comparably low in both WT and KO animals
same,Change in tracer binding in kidney of TAAR1 KO vs WT mice,"[8]; n = 6, p < 0.001",−50%
same,Change in tracer binding in pancreas of TAAR1 KO vs WT mice,"[8]; n = 6, p < 0.001",−32%
same,Initial uptake in kidney,[9]; [11],exceeding 10 % ID/g
same,Initial uptake in lung,[9]; [11],exceeding 10 % ID/g
same,Initial uptake in pancreas,[9]; [11],exceeding 10 % ID/g
same,Specific binding in the brain,"[9]; blockade with RO5425754 4 mg/kg, 15 min post-injection",no specific binding was detected
same,Specific binding in the kidney,[9]; [12],52.5 ± 14.3%
same,Specific binding in the liver,[9]; [12],30.2 ± 12.2%
same,Specific binding in the pancreas,[9]; [12],52.2 ± 15.2%
same,Kidney AUC0−60 min in TAAR1 KO vs WT mice,[10],significant reduction
